# Assays:
# [1] = in vivo; settings: male, Swiss Albino, mouse, po, 10 mg/kg
# [2] = male, Swiss Albino, mouse, in vivo, 10 mg/kg
smiles,measurement,setting,value
CC(C)(C)n1nc(Oc2cccc(Cl)c2)c2c(N)ncnc21 [Compound 2],bioavailability,[1],25 to 30%
same,%F (oral availability),[2],31%

# Source: publication PMC5746462 (Journal of medicinal chemistry, 2017)
